Source: US8183243B2, “Melanocortin receptor agonists” (LG Life Sciences Ltd., priority 2008, dated 2012)
Read-outs that look alike come from different tables or passages of the source.

Target: T1, MC4R (Homo sapiens, UniProt P32245)
T1 construct: expressed in transfected cells; host or cells: HEK (Human Embryonic Kidney) permanent expression cell line HEK MC4R-Luc, co-expressing CRE-luciferase
Test: MCR agonistic activity (luciferase assay / cAMP accumulation assay) on MC4R
Format: cell-based
Settings: HEK cell lines expressing MC4R, not said which
Experimental: Physiological activity of the compounds of the present invention was assessed by measuring agonistic activity as well as binding activity for melanocortin receptors (MCR) according to methods A and B explained as follows.
As one of the methods to measure MCR agonistic activity of the compound according to the present invention, the expression level of a marker gene (for example, luciferase) which increases proportionally according to the increase of cAMP content in the cell, was measured.
First, permanent expression HEK (Human Embryonic Kidney) cell lines (HEK MC1R-Luc, MC3R-Luc, MC4R-Luc or MC5R-Luc) expressing the MCR gene of each subtype together with luciferase gene (CRE-LUC) under the control of CRE (cAMP Response Element) were constructed. The above cell lines were incubated in an incubator with 6% CO2 atmosphere at 37° C. using selection medium, DMEM(Dulbecco's Modified Eagles Medium) containing 10% heat-inactivated fetal bovine serum (Gibco/BRL), 100 unit/ml, penicillin (Gibco/BRL), 100 unit/ml streptomycin (Gibco/BRL), and 200 μg/ml geneticin (G418) (Gibco/BRL). When the cell covered 70% of total surface of the culture dish with 100 mm diameter, the culture dish was rinsed one time with 10 ml Phosphate Buffered Saline(PBS) free of Ca^++ and Mg^++, and then 3 ml PBS solution containing 0.05% trypsin and 0.53 mM EDTA was added thereto. After the trypsin/EDTA solution was removed, the cell lines were incubated in an thermostatic incubator for 1 minute at 37° C., and resuspended in 10 ml selection medium and centrifuged for 5 minutes at 1500 rpm. The supernatant was discarded and the settled cells were resuspended in 5 ml selection medium free of Phenol Red. The resulting cell-suspension was plated onto each well of 96-well culture plates for Luminometer(Costar) with a concentration of 5×10^4 cell in 100 μl culture medium for each well and incubated in the incubator with 6% CO2 atmosphere at 37° C. for 18 hours. With MCR agonists (Example compounds) diluted stepwise using the above culture medium, the cells were treated under the condition of the final DMSO concentration not exceeding 1%, and incubated for 5 hours in the atmosphere of 6% CO2 at 37° C. Then, 50 μl Bright-Glo (Promega) was added to each well. After allowing the treated cells to be at room temperature for 15 minutes, luminescence was measured for each well by using luminometer (Victor). The level of luminescence induced by the stepwise-diluted agonist was converted to relative % value to those by the treatment of 10 nM NDP-MSH. The EC50 indicates the concentration of each agonist for inducing 50% of maximal luminescence by each agonist and this value was measured by a statistical software (Prizm).
B. cAMP Accumulation Assay
As another method to measure MCR agonistic activity of the compound according to the present invention, an increase of cAMP amount in the cell was measured.
First, permanent expression HEK (Human Embryonic Kidney) cell lines (HEK MC1R-Luc, MC3R-Luc, MC4R-Luc or MCSR-Luc) expressing the MCR gene of each subtype were plated onto each well of 24-well culture plates for Luminometer(Costar) with a concentration of 2×10^5 cell in 1 ml culture medium for each well, and then incubated in an incubator with 6% CO2 atmosphere at 37° C. for 24 hours. The medium was removed from each well followed by rinsing with 0.5 ml cold DMEM one time. With MCR agonists (Example compounds) diluted stepwise using 200 μl DMEM including 500 μM IBMX (isobutylmethylxanthine), the cells were treated under the condition of the final DMSO concentration not exceeding 1%, and incubated for 30 minutes in the atmosphere of 6% CO2 at 37° C. Then, the cAMP amount in each cell was measured using Amersham cAMP assay Kit (TRK432).
More specifically, 14.4 μl of 6M PCA (60%) was added to each well, and allowed to be in ice for 10 minutes, and 200 μl sample was taken from each well and transferred to microcentrifuge tube. […]

[1] = method A (CRE-luciferase) or B (cAMP accumulation), read-out: EC50 value, agonistic activity to MC4R (range per group of Examples)
[2] = specific activities of representative compounds, method A or B, read-out: EC50

T1 sequence (P32245 whole entry, species assumed): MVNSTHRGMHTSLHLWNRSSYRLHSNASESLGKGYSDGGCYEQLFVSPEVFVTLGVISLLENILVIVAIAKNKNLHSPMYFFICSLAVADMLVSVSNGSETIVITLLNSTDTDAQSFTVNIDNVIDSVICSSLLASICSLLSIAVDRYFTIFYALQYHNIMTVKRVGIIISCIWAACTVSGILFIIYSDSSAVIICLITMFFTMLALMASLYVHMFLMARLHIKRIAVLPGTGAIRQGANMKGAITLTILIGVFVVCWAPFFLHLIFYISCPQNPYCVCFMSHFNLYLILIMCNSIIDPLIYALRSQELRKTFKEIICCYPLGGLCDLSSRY

Compound | EC50 [1] [nM] | EC50 [2] [nM]
CN1CCN(C(=O)[C@H]2C[C@H](N(C(=O)[C@@H]3CCCO3)[C@H]3CC[C@@H](C)CC3)CN2C(=O)[C@@H]2CN(C(C)(C)C)C[C@H]2c2ccc(Cl)cc2)CC1 (relative stereo) [Example 35, (2S)-N-{(3S,5R)-1-{[(3S,4R)-1-tert-butyl-4-(4-chlorophenyl)pyrrolidin-3-yl]carbonyl}-5-[(4-methylpiperazin-1-yl)carbonyl]pyrrolidin-3-yl}-N-(cis-4-methylcyclohexyl)tetrahydrofuran-2-carboxamide] | 0.1 to 10 | 
CC(=O)N(C1CCC(C)(C)CC1)[C@H]1C[C@@H](C(=O)N2CCN(C)CC2)N(C(=O)[C@@H]2CN(C(C)(C)C)C[C@H]2c2ccc(Cl)cc2)C1 [Example 1, N-{(3S,5S)-1-{[(3S,4R)-1-tert-butyl-4-(4-chlorophenyl)pyrrolidin-3-yl]carbonyl}-5-[(4-methylpiperazin-1-yl)carbonyl]pyrrolidin-3-yl}-N-(4,4-dimethylcyclohexyl)acetamide] | 0.1 to 10 | 10
CC(=O)N(C1CCC(C)(C)CC1)[C@H]1C[C@@H](C(=O)N2CCNCC2)N(C(=O)[C@@H]2CN(C(C)(C)C)C[C@H]2c2ccc(F)cc2F)C1 [Example 2, N-[(3S,5S)-1-{[(3S,4R)-1-tert-butyl-4-(2,4-difluorophenyl)pyrrolidin-3-yl]carbonyl}-5-(piperazin-1-ylcarbonyl)pyrrolidin-3-yl]-N-(4,4-dimethylcyclohexyl)acetamide] | 0.1 to 10 | 6
CN1CCN(C(=O)[C@@H]2C[C@H](N(C(=O)[C@@H]3CCCO3)C3CCC(C)(C)CC3)CN2C(=O)[C@@H]2CN(C(C)(C)C)C[C@H]2c2ccc(Cl)cc2)CC1 [Example 3, (2S)-N-{(3S,5S)-1-{[(3S,4R)-1-tert-butyl-4-(4-chlorophenyl)pyrrolidin-3-yl]carbonyl}-5-[(4-methylpiperazin-1-yl)carbonyl]pyrrolidin-3-yl}-N-(4,4-dimethylcyclohexyl)tetrahydrofuran-2-carboxamide] | 0.1 to 10 | 3
CN1CCN(C(=O)[C@@H]2C[C@H](N(C(=O)C(C)(C)CO)C3CCC(C)(C)CC3)CN2C(=O)[C@@H]2CN(C(C)(C)C)C[C@H]2c2ccc(Cl)cc2)CC1 [Example 4, N-{(3S,5S)-1-{[(3S,4R)-1-tert-butyl-4-(4-chlorophenyl)pyrrolidin-3-yl]carbonyl}-5-[(4-methylpiperazin-1-yl)carbonyl]pyrrolidine-3-yl}-N-(4,4-dimethylcyclohexyl)-3-hydroxy-2,2-dimethylpropanamide] | 0.1 to 10 | 0.2
CC(=O)N(C1CCC(C)(C)CC1)[C@H]1C[C@@H](C(=O)N2CCN(C)CC2)N(C(=O)[C@@H]2CN(C(C)(C)C)C[C@H]2c2ccc(F)cc2F)C1 [Example 5, N-{(3S,5S)-1-{[(3S,4R)-1-tert-butyl-4-(2,4-difluorophenyl)pyrrolidin-3-yl]carbonyl}-5-[(4-methylpiperazin-1-yl)carbonyl]pyrrolidin-3-yl}-N-(4,4-dimethylcyclohexyl)acetamide] | 10 to 100 | 
CCN1CCN(C(=O)[C@@H]2C[C@H](N(C(C)=O)C3CCC(C)(C)CC3)CN2C(=O)[C@@H]2CN(C(C)(C)C)C[C@H]2c2ccc(F)cc2F)CC1 [Example 6, N-{(3S,5S)-1-{[(3S,4R)-1-tert-butyl-4-(2,4-difluorophenyl)pyrrolidin-3-yl]carbonyl}-5-[(4-ethylpiperazin-1-yl)carbonyl]pyrrolidin-3-yl}-N-(4,4-dimethylcyclohexyl)acetamide] | 10 to 100 | 
CC(=O)N(C1CCC(C)(C)CC1)[C@H]1C[C@@H](C(=O)N2CCN(C(C)C)CC2)N(C(=O)[C@@H]2CN(C(C)(C)C)C[C@H]2c2ccc(F)cc2F)C1 [Example 7, N-{(3S,5S)-1-{[(3S,4R)-1-tert-butyl-4-(2,4-difluorophenyl)pyrrolidin-3-yl]carbonyl}-5-[(4-isopropylpiperazin-1-yl)carbonyl]pyrrolidin-3-yl}-N-(4,4-dimethylcyclohexyl)acetamide] | 10 to 100 | 
CCN1CCN(C(=O)[C@@H]2C[C@H](N(C(C)=O)C3CCC(C)(C)CC3)CN2C(=O)[C@@H]2CN(C(C)(C)C)C[C@H]2c2ccc(Cl)cc2)CC1 [Example 8, N-{(3S,5S)-1-{[(3S,4R)-1-tert-butyl-4-(4-chlorophenyl)pyrrolidin-3-yl]carbonyl}-5-[(4-ethylpiperazin-1-yl)carbonyl]pyrrolidin-3-yl}-N-(4,4-dimethylcyclohexyl)acetamide] | 0.1 to 10 | 
CC(=O)N(C1CCC(C)(C)CC1)[C@H]1C[C@@H](C(=O)N2CCN(C(C)C)CC2)N(C(=O)[C@@H]2CN(C(C)(C)C)C[C@H]2c2ccc(Cl)cc2)C1 [Example 9, N-{(3S,5S)-1-{[(3S,4R)-1-tert-butyl-4-(4-chlorophenyl)pyrrolidin-3-yl]carbonyl}-5-[(4-isopropylpiperazin-1-yl)carbonyl]pyrrolidin-3-yl}-N-(4,4-dimethylcyclohexyl)acetamide] | 0.1 to 10 | 
CN1CCN(C(=O)[C@@H]2C[C@H](N(C(=O)C(C)(C)C)C3CCC(C)(C)CC3)CN2C(=O)[C@@H]2CN(C(C)(C)C)C[C@H]2c2ccc(Cl)cc2)CC1 [Example 10, N-{(3S,5S)-1-{[(3S,4R)-1-tert-butyl-4-(4-chlorophenyl)pyrrolidin-3-yl]carbonyl}-5-[(4-methylpiperazin-1-yl)carbonyl]pyrrolidin-3-yl}-N-(4,4-dimethylcyclohexyl)-2,2-dimethylpropanamide] | 0.1 to 10 | 
CN1CCN(C(=O)[C@@H]2C[C@H](N(C(=O)C(C)(C)C)C3CCC(C)(C)CC3)CN2C(=O)[C@@H]2CN(C(C)(C)C)C[C@H]2c2ccc(F)cc2F)CC1 [Example 11, N-{(3S,5S)-1-{[(3S,4R)-1-tert-butyl-4-(2,4-difluorophenyl)pyrrolidin-3-yl]carbonyl}-5-[(4-methylpiperazin-1-yl)carbonyl]pyrrolidin-3-yl}-N-(4,4-dimethylcyclohexyl)-2,2-dimethylpropanamide] | 0.1 to 10 | 
CCN1CCN(C(=O)[C@@H]2C[C@H](N(C(=O)[C@@H]3CCCO3)C3CCC(C)(C)CC3)CN2C(=O)[C@@H]2CN(C(C)(C)C)C[C@H]2c2ccc(Cl)cc2)CC1 [Example 12, (2S)-N-{(3S,5S)-1-{[(3S,4R)-1-tert-butyl-4-(4-chlorophenyl)pyrrolidin-3-yl]carbonyl}-5-[(4-ethylpiperazin-1-yl)carbonyl]pyrrolidin-3-yl}-N-(4,4-dimethylcyclohexyl)tetrahydrofuran-2-carboxamide] | 0.1 to 10 | 
CC(C)N1CCN(C(=O)[C@@H]2C[C@H](N(C(=O)[C@@H]3CCCO3)C3CCC(C)(C)CC3)CN2C(=O)[C@@H]2CN(C(C)(C)C)C[C@H]2c2ccc(Cl)cc2)CC1 [Example 13, (2S)-N-{(3S,5S)-1-{[(3S,4R)-1-tert-butyl-4-(4-chlorophenyl)pyrrolidin-3-yl]carbonyl}-5-[(4-isopropylpiperazin-1-yl)carbonyl]pyrrolidin-3-yl}-N-(4,4-dimethylcyclohexyl)tetrahydrofuran-2-carboxamide] | 0.1 to 10 | 
CN1CCN(C(=O)[C@@H]2C[C@H](N(C(=O)[C@@H]3CCCO3)C3CCC(C)(C)CC3)CN2C(=O)[C@@H]2CN(C(C)(C)C)C[C@H]2c2ccc(F)cc2F)CC1 [Example 14, (2S)-N-{(3S,5S)-1-{[(3S,4R)-1-tert-butyl-4-(2,4-difluorophenyl)pyrrolidin-3-yl]carbonyl}-5-[(4-methylpiperazin-1-yl)carbonyl]pyrrolidin-3-yl}-N-(4,4-dimethylcyclohexyl)tetrahydrofuran-2-carboxamide] | 0.1 to 10 | 
